Test systems include U251 CNS; SR leukemia; SW-620 colon; NCI-H226 lung; 786-0 renal; HL-60(TB) leukemia; OVCAR-5 ovarian; NCI/ADR-RES ovarian; DU-145 prostate; HS 578T breast.
What all share (experiment): NCI tumour cell line growth inhibition, 48 h

“And” between values parts separate entries of the source, which are not always exact repeats. Equal entries are not always repeated.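 Protocol summary: plate cells (96-well), add compound at 5 concentrations, incubate 48 h, interpolate endpoints linearly. The concentration for 50% growth inhibition is given as GI50. The concentration for full growth arrest is given as TGI.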 Some results are limits rather than exact numbers.

As for `N#CC(N)(C(=O)CCC(=O)Nc1cccc(Cl)c1)c1ccc(Cl)cc1` (stereo not drawn), the TGI in the experiment on U251 CNS, in the experiment on SR leukemia, in the experiment on SW-620 colon, with NCI-H226 lung, with 786-0 renal and in the experiment on HL-60(TB) leukemia was more than 100 µM each time.
Turning to `O=C(/C=C/c1ccccc1O)c1ccccc1O`, the TGI in the experiment on U251 CNS, in the experiment with SW-620 colon, in the experiment with NCI-H226 lung, with 786-0 renal, in the experiment on OVCAR-5 ovarian and in the experiment on HL-60(TB) leukemia was more than 100 µM throughout.
Take `O=S1(=O)C[C@H](O)[C@H](O)CS1`: the TGI in the experiment on U251 CNS, with SR leukemia, with SW-620 colon, with NCI-H226 lung, in the experiment on 786-0 renal and with OVCAR-5 ovarian was more than 100 µM throughout. Moreover, the TGI with HL-60(TB) leukemia is more than 100 µM.
`Cc1cc([N+](=O)[O-])ccc1Nc1cccc(Cl)c1C`: the TGI with U251 CNS was 29.8 µM; with SR leukemia it was 40.4 µM; in the experiment on SW-620 colon it was 62.7 µM; in the experiment on NCI-H226 lung, 34.9 µM; in the experiment on 786-0 renal it was 31.9 µM; in the experiment with OVCAR-5 ovarian it was 28.8 µM. For the same compound, the TGI in the experiment with HL-60(TB) leukemia was 41.6 µM.
For `CCCN=C(N)NC#N`, the TGI is more than 100 µM in the experiment on U251 CNS; 77.2 µM in the experiment with SR leukemia; 30.8 µM with SW-620 colon; more than 100 µM in the experiment on NCI-H226 lung; 65.1 µM with 786-0 renal; more than 100 µM with OVCAR-5 ovarian. For the same compound, the TGI with HL-60(TB) leukemia is more than 100 µM.
For the compound `O=c1[nH]c(=O)n(C2OC(CO)C(O)C2O)cc1NN=NCc1ccccc1` (stereo not drawn), the TGI in the experiment with U251 CNS was more than 100 µM; with SR leukemia it was more than 100 µM; with SW-620 colon, more than 67.8 µM; in the experiment on NCI-H226 lung it was more than 100 µM; in the experiment on 786-0 renal, more than 100 µM; in the experiment on OVCAR-5 ovarian it was more than 100 µM. Further, the TGI in the experiment on HL-60(TB) leukemia is more than 96.8 µM.
Turning to `O=C(CCn1[nH]c(=O)c(Cl)c(Cl)c1=O)NO`, the TGI in the experiment on U251 CNS, in the experiment on SW-620 colon, with NCI-H226 lung, with 786-0 renal, with OVCAR-5 ovarian and with HL-60(TB) leukemia was more than 100 µM each time.
`Cc1ccc(Cc2c(=O)[nH]nc3ccccc23)cc1`: the TGI with SW-620 colon, with NCI-H226 lung, with 786-0 renal and with OVCAR-5 ovarian was more than 100 µM throughout.
Regarding `CC(C)(C)CC(C)(C)c1cc2c(O)c(c1)Cc1cc(C(C)(C)CC(C)(C)C)cc(c1O)Cc1cc(C(C)(C)CC(C)(C)C)cc(c1O)Cc1cc(C(C)(C)CC(C)(C)C)cc(c1O)C2`, the TGI in the experiment with U251 CNS, in the experiment on SW-620 colon, in the experiment with 786-0 renal, with OVCAR-5 ovarian and in the experiment with HL-60(TB) leukemia was more than 100 µM in each case.
In the case of `CCCCC(C(=O)C(=O)NC1C2CC3CC(C2)CC1C3)C(=O)C(C)C` (stereo not drawn), the TGI in the experiment with U251 CNS, in the experiment with SR leukemia, in the experiment on SW-620 colon, in the experiment on NCI-H226 lung, in the experiment on 786-0 renal and with OVCAR-5 ovarian was more than 100 µM throughout. Also, in the experiment with HL-60(TB) leukemia, the TGI is more than 100 µM.
As to `Cc1nc2c(-c3cnc(N)nc3)nc(N3CCOCC3)nc2n1C(C)C`, the TGI in the experiment with U251 CNS was > 10 µM and 37.7 µM; with NCI/ADR-RES ovarian, 4.81 µM; in the experiment on DU-145 prostate, more than 100 µM; with SW-620 colon, more than 100 µM; in the experiment on 786-0 renal it was 1.32 µM and 0.902 µM; with OVCAR-5 ovarian, more than 3.48 µM. The TGI in the experiment with HS 578T breast is 0.578 µM and 0.199 µM; in the experiment with HL-60(TB) leukemia, > 5.87 µM and 20.9 µM. The GI50 with HL-60(TB) leukemia was 0.222 µM and 0.23 µM.
For `CN(C)/C=N/c1nc2c(ncn2C2OC(CO)C(O)C2O)c(=O)[nH]1` (stereo not drawn), the TGI in the experiment with U251 CNS, in the experiment on SR leukemia, with SW-620 colon, in the experiment on NCI-H226 lung, with 786-0 renal and in the experiment on OVCAR-5 ovarian was more than 100 µM in each case. In addition, in the experiment on HL-60(TB) leukemia, the TGI was more than 100 µM.
For the compound `CN(C)c1ccc(C(C=C2c3ccccc3Sc3ccccc32)=C(C#N)C#N)cc1`, the TGI in the experiment on U251 CNS, in the experiment with SW-620 colon, in the experiment on 786-0 renal, with OVCAR-5 ovarian and in the experiment with HL-60(TB) leukemia was more than 100 µM each time.
As to `Cc1cc(CC(O)c2ccc(Cl)c(Cl)c2)nc(=O)[nH]1` (stereo not drawn), the TGI is more than 100 µM in the experiment on U251 CNS; more than 100 µM in the experiment with SR leukemia; more than 100 µM in the experiment with SW-620 colon; 92 µM in the experiment on NCI-H226 lung; 38.7 µM in the experiment with 786-0 renal; more than 100 µM in the experiment on OVCAR-5 ovarian. Also, the TGI in the experiment with HL-60(TB) leukemia was more than 100 µM.
In the case of `N#Cc1nc(Nc2cccc3ccccc23)sc1N`, the TGI in the experiment on U251 CNS was 52.9 µM; in the experiment with SR leukemia, 27.8 µM; in the experiment on SW-620 colon it was more than 100 µM; in the experiment on NCI-H226 lung, more than 100 µM; with 786-0 renal it was more than 100 µM; in the experiment with OVCAR-5 ovarian, more than 100 µM. This compound also registered a TGI in the experiment on HL-60(TB) leukemia of more than 100 µM.
With `COC(=O)c1cc2c(s1)C(=O)c1ccccc1-2`, the TGI with U251 CNS, with SW-620 colon, with NCI-H226 lung, with 786-0 renal, with OVCAR-5 ovarian and with HL-60(TB) leukemia was more than 100 µM throughout.
Regarding `Cc1nn(-c2ccccc2)c2nc(N3CCOCC3)nnc12`, the TGI in the experiment with U251 CNS, in the experiment with SW-620 colon, in the experiment with 786-0 renal and in the experiment with OVCAR-5 ovarian was more than 100 µM in each case.
`Cc1ccc(S(=O)(=O)N(CC(=O)O)c2ccccc2)cc1`: the TGI with U251 CNS, in the experiment on SW-620 colon, with 786-0 renal, with OVCAR-5 ovarian and in the experiment with HL-60(TB) leukemia was more than 100 µM each time.
As for `CCC(C)n1ncn(-c2ccc(N3CCN(c4ccc(OCC5COC(Cn6cncn6)(c6ccc(Cl)cc6Cl)O5)cc4)CC3)cc2)c1=O` (stereo not drawn), the GI50 in the experiment with U251 CNS is 4.03 µM; with NCI/ADR-RES ovarian it was 26.1 µM; in the experiment on DU-145 prostate, more than 100 µM; in the experiment with SW-620 colon it was more than 100 µM; in the experiment with NCI-H226 lung, 28.1 µM; with 786-0 renal, 0.559 µM. In addition, the figures for the GI50 in the experiment with OVCAR-5 ovarian and with HS 578T breast were 56.3 µM and 7.42 µM, respectively. The TGI in the experiment on U251 CNS was more than 100 µM; in the experiment with NCI/ADR-RES ovarian, more than 100 µM; in the experiment with DU-145 prostate, more than 100 µM; in the experiment on SW-620 colon, more than 100 µM; with NCI-H226 lung, more than 100 µM; with 786-0 renal it was 32.7 µM. In addition, the TGI with OVCAR-5 ovarian and in the experiment on HS 578T breast was more than 100 µM in each case.

The record behind these values is PubChem BioAssay (NCI).
